Measurements from patent US6737383B1, “Herbicidal oxadiazolidines” (priority 1999, dated 2004).

Columns and labels:
pigweed = experiment: Test B pre/postemergence pigweed; type: in vivo, Amaranthus retroflexus
Summary of the method: (§1)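 Herbicidal effect was estimated by eye on a ten-point control scale after plants spent twelve to sixteen days in a greenhouse following soil or foliar treatment. Foliar sprays targeted plants at one to four leaves; all doses were formulated in a non-phytotoxic solvent with surfactant.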

sugar beet = experiment: Test B pre/postemergence sugar beet; type: in vivo, Beta vulgaris
Summary of the method: as §1

corn = experiment: Test B pre/postemergence corn; type: in vivo, Zea mays
Summary of the method: as §1

purple nutsedge = experiment: Test B pre/postemergence purple nutsedge; type: in vivo, Cyperus rotundus
Summary of the method: as §1

wheat = experiment: Test B pre/postemergence wheat; type: in vivo, Triticum aestivum
Summary of the method: as §1

soybean = experiment: Test B pre/postemergence soybean; type: in vivo, Glycine max
Summary of the method: as §1

velvetleaf = experiment: Test B pre/postemergence velvetleaf; type: in vivo, Abutilon theophrasti
Summary of the method: as §1

giant foxtail = experiment: Test B pre/postemergence giant foxtail; type: in vivo, Setaria faberii
Summary of the method: as §1

wild oat = experiment: Test B pre/postemergence wild oat; type: in vivo, Avena fatua
Summary of the method: as §1

crabgrass = experiment: Test B pre/postemergence crabgrass; type: in vivo, Digitaria sanguinalis
Summary of the method: as §1

surinam grass = experiment: Test B pre/postemergence surinam grass; type: in vivo, Brachiaria decumbens
Summary of the method: as §1

morningglory = experiment: Test B pre/postemergence morningglory; type: in vivo, Ipomoea hederacea
Summary of the method: as §1

blackgrass = experiment: Test B pre/postemergence blackgrass; type: in vivo, Alopecurus myosuroides
Summary of the method: as §1

bedstraw = experiment: Test B pre/postemergence bedstraw; type: in vivo, Galium aparine
Summary of the method: as §1

cocklebur = experiment: Test B pre/postemergence cocklebur; type: in vivo, Xanthium strumarium
Summary of the method: as §1

rape = experiment: Test B pre/postemergence rape; type: in vivo, Brassica napus
Summary of the method: as §1

[1] = Postemergence, Rate 62 g/ha, scale 0 to 10, 0 is no effect, 10 is complete control
[2] = Postemergence, Rate 125 g/ha, scale of 0 to 10 where 0 is no effect and 10 is complete control
[3] = Postemergence, Rate 500 g/ha, scale 0 (no effect) to 10 (complete control)
[4] = Rate 62 g/ha, Preemergence, scale 0 to 10
[5] = Rate 125 g/ha, Preemergence, scale 0 to 10 (0 no effect, 10 complete control)
[6] = Rate 250 g/ha, Postemergence, scale 0 to 10, 0 is no effect, 10 is complete control
[7] = Rate 500 g/ha, Preemergence, scale 0 to 10 (0 no effect, 10 complete control)
[8] = Preemergence, Rate 250 g/ha, scale 0 (no effect) to 10 (complete control)

In the case of COc1ccc(N(C(=O)n2oc(=O)n(C(C)C)c2=O)C(C)C)cc1 [Compound 780], the “Plant response rating, Redroot pigweed” value (pigweed; [1]) is reported as 0, the “Redroot pigweed plant response rating” value (pigweed; [2]) is reported as 0 and the “Redroot pigweed plant response rating” value (pigweed; [3]) is reported as 0. The “Redroot pigweed plant response rating” value (pigweed; [4]) was 0, the “Redroot pigweed plant response rating” value (pigweed; [5]) was 3 and the “Redroot pigweed plant response rating” value (pigweed; [6]) was 0. The “Redroot pigweed plant response rating” value (pigweed; [7]) was 6, the “Plant response rating, Sugarbeets” value (sugar beet; [1]) was 0 and the “Sugarbeets plant response rating” value (sugar beet; [3]) was 0. For the same compound, the “Sugarbeets plant response rating” value (sugar beet; [4]) was 2, the “Sugarbeets plant response rating” value (sugar beet; [5]) was 2 and the “Sugarbeets plant response rating” value (sugar beet; [6]) was 0. For the same compound, the “Sugarbeets plant response rating” value (sugar beet; [7]) was 6, the “Plant response rating, Corn” value (corn; [1]) was 0 and the “Corn plant response rating” value (corn; [2]) was 0. The “Corn plant response rating” value (corn; [3]) was 6, the “Corn plant response rating” value (corn; [8]) was 6 and the “Corn plant response rating” value (corn; [4]) was 2. For the same compound, the “Corn plant response rating” value (corn; [5]) was 2, the “Corn plant response rating” value (corn; [6]) was 3 and the “Corn plant response rating” value (corn; [7]) was 9. The “Plant response rating, Nutsedge” value (purple nutsedge; [1]) was 0, the “Nutsedge plant response rating” value (purple nutsedge; [2]) was 0 and the “Nutsedge plant response rating” value (purple nutsedge; [3]) was 4. The “Nutsedge plant response rating” value (purple nutsedge; [4]) was 0, the “Nutsedge plant response rating” value (purple nutsedge; [5]) was 0 and the “Nutsedge plant response rating” value (purple nutsedge; [6]) was 4. For the same compound, the “Plant response rating, Wheat” value (wheat; [1]) was 0, the “Wheat plant response rating” value (wheat; [3]) was 2 and the “Wheat plant response rating” value (wheat; [4]) was 0. For the same compound, the “Wheat plant response rating” value (wheat; [5]) was 6, the “Wheat plant response rating” value (wheat; [6]) was 0 and the “Wheat plant response rating” value (wheat; [7]) was 9. For the same compound, the “Plant response rating, Soybean” value (soybean; [1]) was 3, the “Soybean plant response rating” value (soybean; [3]) was 4 and the “Soybean plant response rating” value (soybean; [4]) was 0. For the same compound, the “Soybean plant response rating” value (soybean; [5]) was 0, the “Soybean plant response rating” value (soybean; [6]) was 0 and the “Soybean plant response rating” value (soybean; [7]) was 3. The “Plant response rating, Velvetleaf” value (velvetleaf; [1]) was 0, the “Velvetleaf plant response rating” value (velvetleaf; [3]) was 4 and the “Velvetleaf plant response rating” value (velvetleaf; [4]) was 0. For the same compound, the “Velvetleaf plant response rating” value (velvetleaf; [5]) was 3, the “Velvetleaf plant response rating” value (velvetleaf; [6]) was 4 and the “Velvetleaf plant response rating” value (velvetleaf; [7]) was 5. The “Plant response rating, Giant foxtail” value (giant foxtail; [1]) was 7, the “Giant foxtail plant response rating” value (giant foxtail; [2]) was 8 and the “Giant foxtail plant response rating” value (giant foxtail; [3]) was 9. For the same compound, the “Giant foxtail plant response rating” value (giant foxtail; [8]) was 10, the “Giant foxtail plant response rating” value (giant foxtail; [4]) was 10 and the “Giant foxtail plant response rating” value (giant foxtail; [5]) was 10. The “Giant foxtail plant response rating” value (giant foxtail; [6]) was 9, the “Giant foxtail plant response rating” value (giant foxtail; [7]) was 10 and the “Plant response rating, Wild oats” value (wild oat; [1]) was 0. For the same compound, the “Wild oats plant response rating” value (wild oat; [3]) was 2, the “Wild oats plant response rating” value (wild oat; [4]) was 0 and the “Wild oats plant response rating” value (wild oat; [5]) was 0. The “Wild oats plant response rating” value (wild oat; [6]) was 2, the “Wild oats plant response rating” value (wild oat; [7]) was 9 and the “Plant response rating, Crabgrass” value (crabgrass; [1]) was 3. For the same compound, the “Crabgrass plant response rating” value (crabgrass; [2]) was 4, the “Crabgrass plant response rating” value (crabgrass; [3]) was 7 and the “Crabgrass plant response rating” value (crabgrass; [8]) was 10. The “Crabgrass plant response rating” value (crabgrass; [4]) was 10, the “Crabgrass plant response rating” value (crabgrass; [5]) was 10 and the “Crabgrass plant response rating” value (crabgrass; [6]) was 7. The “Crabgrass plant response rating” value (crabgrass; [7]) was 10, the “Plant response rating, B. signalgrass” value (surinam grass; [1]) was 0 and the “B. signalgrass plant response rating” value (surinam grass; [2]) was 5. For the same compound, the “B. signalgrass plant response rating” value (surinam grass; [8]) was 8, the “B. signalgrass plant response rating” value (surinam grass; Rate 62 g/ha, Preemergence, scale 0 (no effect) to 10 (complete control)) was 6 and the “B. signalgrass plant response rating” value (surinam grass; [5]) was 6. For the same compound, the “B. signalgrass plant response rating” value (surinam grass; [6]) was 5, the “B. signalgrass plant response rating” value (surinam grass; Rate 500 g/ha, Postemergence, scale 0 to 10, 0 is no effect, 10 is complete control) was 5 and the “B. signalgrass plant response rating” value (surinam grass; [7]) was 4. For the same compound, the “Plant response rating, Morningglory” value (morningglory; [1]) was 4, the “Morningglory plant response rating” value (morningglory; [2]) was 4 and the “Morningglory plant response rating” value (morningglory; [3]) was 8. For the same compound, the “Morningglory plant response rating” value (morningglory; [4]) was 0, the “Morningglory plant response rating” value (morningglory; [5]) was 0 and the “Morningglory plant response rating” value (morningglory; [6]) was 7. The “Morningglory plant response rating” value (morningglory; [7]) was 2, the “Plant response rating, Blackgrass” value (blackgrass; [1]) was 0 and the “Blackgrass plant response rating” value (blackgrass; [2]) was 2. For the same compound, the “Blackgrass plant response rating” value (blackgrass; [3]) was 4, the “Blackgrass plant response rating” value (blackgrass; [8]) was 9 and the “Blackgrass plant response rating” value (blackgrass; [4]) was 2. The “Blackgrass plant response rating” value (blackgrass; [5]) was 6, the “Blackgrass plant response rating” value (blackgrass; [6]) was 4 and the “Blackgrass plant response rating” value (blackgrass; [7]) was 9. For the same compound, the “Plant response rating, Bedstraw” value (bedstraw; [1]) was 0, the “Bedstraw plant response rating” value (bedstraw; [2]) was 0 and the “Bedstraw plant response rating” value (bedstraw; [8]) was 0. The “Bedstraw plant response rating” value (bedstraw; [4]) was 0, the “Bedstraw plant response rating” value (bedstraw; [5]) was 0 and the “Bedstraw plant response rating” value (bedstraw; [7]) was 2. For the same compound, the “Plant response rating, Cocklebur” value (cocklebur; [1]) was 0, the “Cocklebur plant response rating” value (cocklebur; [2]) was 0 and the “Cocklebur plant response rating” value (cocklebur; [3]) was 0. For the same compound, the “Cocklebur plant response rating” value (cocklebur; [8]) was 2, the “Cocklebur plant response rating” value (cocklebur; [4]) was 0 and the “Cocklebur plant response rating” value (cocklebur; [5]) was 0. The “Cocklebur plant response rating” value (cocklebur; [6]) was 0, the “Cocklebur plant response rating” value (cocklebur; [7]) was 2 and the “Plant response rating, Rape” value (rape; [1]) was 0. The “Rape plant response rating” value (rape; [2]) was 0, the “Rape plant response rating” value (rape; [3]) was 0 and the “Rape plant response rating” value (rape; [4]) was 0. The “Rape plant response rating” value (rape; [5]) was 0, the “Rape plant response rating” value (rape; [6]) was 0 and the “Rape plant response rating” value (rape; [7]) was 6.
